According to patent US12686877B2, “Method for producing olivetolic acid in an amoebozoa host species” (LEIBNIZ-INSTITUT FÜR NATURSTOFF-FORSCHUNG UND …, priority 2020, dated 2026):

Test system: D. discoideum pChR2 strain
Assay: Growth and metabolic activity monitoring (respiration activity, oxygen transfer rate)
Type: cell-based, Dictyostelium discoideum
Conditions: pChR2 strain supplemented with 1 mM hexanoic acid
Description: Growth and metabolic activity monitoring. For determining the respiration activity, the D. discoideum pChR2, pChR5 and pChR7 strains were grown at an initial density of 1×10^6 cells/mL of HL5 medium supplemented with 1% [w/v] glucose and 20 μg/mL G418 in the presence or absence of 20 μg/mL doxycycline and 1 mM hexanoic acid as indicated. The respiration activity was measured by using the Kuhner TOM (transfer-rate online measurement) system equipped with oxygen partial pressure sensors and infrared sensors to calculate the oxygen transfer rate (OTR) and the carbon dioxide transfer rate (CTR). The cultures were grown in 250 mL TOM flasks for 144 h at 140 rpm and 22° C. without interruption to allow a constant OTR assessment. A filling volume of 52 mL was calculated in order to allow a maximum OTR of 8.5 mmol/L/h43, similar to culture conditions of previous experiments using 25 mL per 100 mL Erlenmeyer shake flasks.

CCCCCC(=O)O [hexanoic acid]
effect on growth: initial growth inhibitory effect | effect on maximum OTR: did not change the maximum OTR | time at which the oxygen transfer rate (OTR) peaked (77 h without supplementation): 92 h
